{"source": "patent US20120202272A1", "about": "“LIGE-TYPE SYSTEMS FOR BIOCONVERSION OF LIGNIN-DERIVED COMPOUNDS” (priority 2010, published 2012)", "molecules": {"B1": {"name": "LigF: S. paucimobilis LigF beta-etherase, positive control polypeptide (protein)", "chain": "MTLKLYSFGPGANSLKPLATLYEKGLEFEQVFVDPSKFEQHSDWFKKINPRGQVPALWHDGKVVTESTVICEYLEDVFPESGNSLRPADPFKRAEMRVWTKWVDEYFCWCVSTIGWAFGIKAIAQKMSDEEFEEHINKNVPIPEQQLKWRRARNGFPQEMLDEEFRKVGVSVARLEETLSKQDYLVDTGYSLADICNFAIANGLQRPGGFFGDYVNQEKTPGLCAWLDRINARPAIKEMFEKSKREDLLKRQNEKVA"}, "B2": {"name": "ligE1: N. aromaticivorans beta-etherase polypeptide, glutathione S-transferase-like protein, GenBank ABD26841.1 (protein)", "chain": "MAANNTITFYDLALSTGATISPFVWATKYALKHKGFDLDVVPGGFTGILERTGGKTERLPAIVDDGEFVLDSWGIVEYLDAKYPDRPVLIPHESVAATLKALDNWFWNAAVGPWMFCFCQDYRDLSLPQDHEYVTHSREKMLGRKLEEVQAGREERLPKISAALEPLRAALAQHQWLGGSSPNYADYRIMGGILFTASVCKTPVLANDDPLRDWIERCLDLYGGLGRHPGLFPLFGLEQREGDPDLFNRAAGQGGIYKRNTGPESTRAETQRITEGMKK"}, "B3": {"name": "LigF2: N. aromaticivorans beta-etherase polypeptide, glutathione S-transferase-like protein, GenBank ABD27301.1 (protein)", "chain": "MALKYYHAEPLANSLKSMVPLKEKGLAYESIYVDLHKFEQHQPWFTAINPEGQVPVLDHDGTIITHTTVINEYLEDAFPDAQPADAPLRPRDPVGAARMRYWNKFIDEHVMNYVSMHGWHRMVGVIARNIASGDFEKLLESIPLPDQRKKWATARSGFSEADLANATAKIEYALDKVEKQLGETKWLAGDTYTLADINFYSHCGAMVERMFPEMEVARRAPRLCEWRDRVAARPAVAEALKSEDRTAPGLRVWSGEVR"}, "B4": {"name": "ligE: S. paucimobilis ligE beta-etherase, positive control polypeptide (protein)", "chain": "MARNNTITLYDLQLESGCTISPYVWRTKYALKHKGFDIDIVPGGFTGILERTGGRSERVPVIVDDGEWVLDSWVIAEYLDEKYPDRPMLFEGPTQKNLMKFLDNWLWSTAVGPWFRCYILDYHDLSLPQDRDYVRWSREQWFLGGQRLEDVQAGREDRLPLVPPTLEPFRRILAETKWLGGDQPNFADYSALAVFLWTASVARTPPLTEDDPLRDWLDRGFDLFDGLGRHPGMNPLFGLKLREGDPEPFVRQTGPAGAGGQALNKGPQTTKMPPRVAEKAD"}}, "key": {"Escherichia coli": {"system": "Escherichia coli", "settings": "stated as demonstrated; cited from earlier work"}, "[1]": {"test": "in vitro biochemical assay for beta-etherase activity on fluorescent substrate MUAV (4MU formation, clarified E. coli cell extracts)", "text": "The model substrate synthesis 150 for use in the biochemical screening for selective activity can be outsourced through a contract research organization (CRO). The enzyme discovery effort can initially be focused on identifying potential beta-etherase candidate genes identified through bioinformatic methods. […] The fluorescent substrate α-O-(β-methylumbelliferyl)acetovanillone (MUAV), for example, can be used in in vitro assays to identify beta-etherase function (Acme Biosciences, Mt. View, Calif.). The formation of 4 methylumbelliferone (4MU) upon hydrolysis of the aryl ether bond can be monitored by fluorescence, for example, at λex=365 nm and λem=450 nm (or 460 nm).\nThe enzyme screening 155 is done to identify novel etherases 160. […] Expression of the beta-etherase genes can be done in 5 ml or 25 ml samples of the recombinant E. coli strains in LB medium using induction with IPTG. Following induction, and cell harvest, cell pellets can be lysed using the BPER (Invitrogen) cell lysis system. […] The formation of 4 methylumbelliferone (4MU) upon hydrolysis of the aryl ether bond in MUAV can be monitored by fluorescence at λex=365 nm and λem=460 nm, and can provide quantitative measurement of beta-etherase function. Cell extracts of E. coli transformed with the S. paucimobilis ligE and ligF genes can be the assay positive controls. Test or unknown samples can include, for example, E. coli strains expressing putative beta-etherase genes from N. aromaticovorans.\nThis example describes a method for gene expression in E. coli, as well as beta-etherase biochemical assays. Expression of known and putative beta-etherase genes was performed using 5 ml cultures of the recombinant E. coli strains described herein in Luria Broth medium by induction of gene expression using isopropylthiogalactoside (IPTG) to a final concentration of 0.1 mM. Following induction, and cell harvest, the cells were disrupted using either sonication or the BPER (Invitrogen) cell lysis system.\nIn vitro reactions were performed in a total volume of 200 ul and contained: 25 mM TrisHCl pH 7.5; 0.5 mM dithiothreitol; 1 mM glutathione; 0.05 mM or 0.1 mM MUAV; 10 ul of clarified cell extract used to initiate the reactions. Following incubation for 2.5 hours at room temperature, a 50 ul sample of the reactions was terminated using 150 uL of 300 mM glycine/NaOH buffer pH 9. The formation of 4 methylumbelliferone (4MU) upon hydrolysis of the aryl ether bond was monitored by the increase in fluorescence at λex=360 nm and λem=450 nm using a Spectramax UV/visible/fluorescent spectrophotometer.\nThe total protein concentrations of the cell lysates were determined using the BCA reagent system for protein quantification (Pierce).\nInduction might be also performed using IPTG concentrations in the range of 0.01-1 mM. Cell disruption might be also performed using toluene permeabilization, French pressure techniques, or using multiple freeze/thaw cycles in conjunction with lysozyme. Assay conditions might be varied to include TrisHCl at 10-150 mM concentrations and in the pH range of 6.5-8.5; 0-2 mM dithiothreitol; 0.05-2 mM glutathione; 0.01-5 mM MUAV substrate; 22-42° C. reaction temperatures. The biochemical assay might be performed as a fixed time point assay with reaction times ranging from 5 minutes-12 hours, or performed continuously without quenching with glycine/NaOH buffer to extract enzyme kinetic parameters."}, "[2]": {"settings": "MUAV substrate, concentration not given"}, "[3]": {"settings": "reactions containing 0.1 mM MUAV substrate, E. coli cell extracts"}}}
{"molecule": "O=Cc1ccc(O)c(O)c1O", "note": "[2,3,4-trihydroxybenzaldehyde]", "values": [{"measurement": "antibacterial activity against Escherichia coli", "setting": "Escherichia coli", "value": "antibacterial activity"}]}
{"molecule": "O=Cc1cccc(O)c1O", "note": "[2,3-dihydroxybenzaldehyde]", "values": [{"measurement": "antibacterial activity against Escherichia coli", "setting": "Escherichia coli", "value": "antibacterial activity"}]}
{"molecule": "O=Cc1c(O)cc(O)cc1O", "note": "[2,4,6-trihydroxybenzaldehyde]", "values": [{"measurement": "antibacterial activity against Escherichia coli", "setting": "Escherichia coli", "value": "antibacterial activity"}]}
{"molecule": "O=Cc1ccc(O)cc1O", "note": "[2,4-dihydroxybenzaldehyde]", "values": [{"measurement": "antibacterial activity against Escherichia coli", "setting": "Escherichia coli", "value": "antibacterial activity"}]}
{"molecule": "O=Cc1cc(O)ccc1O", "note": "[2,5-dihydroxybenzaldehyde]", "values": [{"measurement": "antibacterial activity against Escherichia coli", "setting": "Escherichia coli", "value": "antibacterial activity"}]}
{"molecule": "COc1cccc(C=O)c1O", "note": "[2-hydroxy-3-methoxybenzaldehyde]", "values": [{"measurement": "antibacterial activity against Escherichia coli", "setting": "Escherichia coli", "value": "antibacterial activity"}]}
{"molecule": "COc1ccc(O)c(C=O)c1", "note": "[2-hydroxy-5-methoxybenzaldehyde]", "values": [{"measurement": "antibacterial activity against Escherichia coli", "setting": "Escherichia coli", "value": "antibacterial activity"}]}
{"molecule": "O=Cc1ccccc1O", "note": "[2-hydroxybenzaldehyde]", "values": [{"measurement": "antibacterial activity against Escherichia coli", "setting": "Escherichia coli", "value": "antibacterial activity"}]}
{"molecule": "COc1cc(O)cc(OC)c1C=O", "note": "[4-hydroxy-2,6-dimethoxybenzaldehyde]", "values": [{"measurement": "antibacterial activity against Escherichia coli", "setting": "Escherichia coli", "value": "antibacterial activity"}]}
{"molecule": "B1", "values": [{"measurement": "total activity (beta-etherase)", "setting": "[1]; [2]", "value": 558, "unit": "rfu/ug"}]}
{"molecule": "B2", "values": [{"measurement": "beta-etherase activity (in words)", "setting": "[1]; MUAV substrate", "value": "beta-etherase activity"}, {"measurement": "efficiency relative to S. paucimobilis ligE beta-etherase enzyme", "setting": "[1]; MUAV substrate", "value": "approximately 75 fold"}, {"measurement": "total activity (beta-etherase)", "setting": "[1]; [3]", "value": 529, "unit": "rfu/ug"}]}
{"molecule": "B3", "values": [{"measurement": "efficiency relative to S. paucimobilis LigF protein", "setting": "[1]; MUAV substrate", "value": "approximately 2 fold"}, {"measurement": "total activity (beta-etherase)", "setting": "[1]; [2]", "value": 1206, "unit": "rfu/ug"}]}
{"molecule": "B4", "values": [{"measurement": "total activity (beta-etherase)", "setting": "[1]; [3]", "value": 7, "unit": "rfu/ug"}]}
